Test results taken from article PMC8360061, “Search for the Active Ingredients from a 2‐Aminothiazole DMSO Stock Solution with Antimalarial Activity” (Chemmedchem, 2021).
Entries after “also recorded” stand apart in the source; their conditions may differ. Like-named read-outs stand apart in the source and are kept apart here.

Assays:
[1] = system: Plasmodium falciparum drug-sensitive NF54; test: Antimalarial assay, [3H]hypoxanthine incorporation; type: cell-based; details: for IC50: Plasmodium falciparum, read-out: PfNF54 IC50
Description: Due to the nature of the study, some decomposition samples w ere only tested once and thus, for some formal standard error, […]
For the final purified compounds, replicates were measured and standard deviation was calculated at least from two replicates.
1.2 General Procedure for Antimalarial Assay
Plasmodium falciparum drug-sensitive NF54 (airport strain from The Netherlands, provided by F. Hoffmann-La Roche Ltd) was cultivated in a variation of the medium consisting of RPMI 1640 supplemented with 0.5% ALBUMAX® II, 25 mM Hepes, 25 mM NaHCO3 (pH 7.3), 0.36 mM hypoxanthine, and 100 μg/mL neomycin, as previously described.[4,5] Human erythrocytes served as host cells.
Cultures were maintained in an atmosphere of 3% O2, 4% CO2, and 93% N2 in humidified modular chambers at 37 °C. Compounds were dissolved in MeOH (10 mM), diluted in hypoxanthine-free culture medium and titrated in duplicates over a 64-fold range in 96 well plates. Infected erythrocytes (1.25% final hematocrit and 0.3% final parasitemia) were added into the wells. After 48 h incubation, 0.25 μCi of [3H]hypoxanthine was added per well and plates were incubated for an additional 24 h. Parasites were harvested onto glass-fiber filters and radioactivity was counted using a Betaplate liquid scintillation counter (Wallac, Zurich). Chloroquine […]
The results were recorded and expressed as a percentage of the untreated controls. Fifty percent inhibitory concentrations (IC50) were estimated by linear interpolation.[6] […]

[2] = Decomposition study of stock solutions (HRMS, NMR); type: physicochemical
Description: Firstly, we performed a temperature‐dependent decomposition study of compound 1 at 10 mM concentration in DMSO at room temperature (RT), +4 °C and −20 °C (SI, Section 2.3). After seven days, 64 % of the sample stored at RT had decomposed (SI, Table S1). Besides visual inspection of the colour changes of the test sample (see Table 2), the decomposition was monitored by HRMS and NMR spectroscopy. […] Furthermore, all three samples were tested for their inhibitory activity against PfIspE after the incubation period. […] This fact correlated with the degree of chemical transformation of compound 1 (Table S1). In the IspE assay, the activity of the target enzyme is coupled to the oxidation of NADH (which can be followed spectrophotometrically at 340 nm) via a cascade of the auxiliary enzymes pyruvate kinase and lactate dehydrogenase (PK/LDH).[10] Therefore, we next confirmed, whether the effects observed in the IspE assay are due to inhibition of the target enzyme or of the auxiliary enzymes. Three samples of compound 1 were tested in PK/LDH assay (Table 2).
Secondly, we analysed if spontaneous chemical transformation of compound 1 may depend on the solvent used for the preparation of its stock solutions. We incubated 10 mM stock preparations of compound 1 in DMSO, acetonitrile (ACN) and methanol (MeOH) at RT. Aliquots were taken during 16 days of incubation and tested against the enzyme PfIspE (Table 3). […] For further decomposition incubation of compound 1, only DMSO was used as solvent.
2.3 Temperature-Dependent Study
Compound 1 was dissolved in DMSO to afford 10 mM stock solution, in the scale of 3.65 mg in 1 mL. Three aliquots were prepared and one each was stored inside a light -protecting box at different temperatures: room temperature (RT), +4 °C and –20 °C. Samples were only taken to RT for the minimum time required for sampling. Samples were further d iluted with acetonitrile to 10 µM (1:1000) for HRMS analysis. For calibration, a fresh stock solution of the compound 1 was prepared shortly before the analysis. The concentration range used for the calibration was from 10 µM to 20 nM, including 10 samples with 1:1 dilutions starting from the highest concentration (Appendix I). In all of the calibration points and samples, diphenhydramine ( m/z: 256.16907 [M+H]+) was included as an internal standard at the concentration of 500 nM. The results were analysed using Thermo Xcalibur Quan Browser. Similarly, three NMR samples of compound 1 were prepared in DMSO-d6 and each stored at different temperatures; RT, +4 °C and –20 °C, (Figure S8).
Table S1. Summary of the decomposition of compound 1 at different temperatures with the corresponding enzymatic activities measured after three months.
The Percentage of Compound 1 Left After Degradation after 3 months of decomposition[b] Temperature Day 7 1 month 2 months PfIspE IC50 EcIspE IC50 PK/LDH IC50 […]
[a] [b] Errors given as formal standard error. n.d.: not determined, PK/LDH: pyruvate kinase and lactate dehydrogenase, Pf: Plasmodium falciparum, Ec: Escherichia coli.
Figure S7. The HRMS recorded for the samples submitted to the enzyme assay after 3 months of decomposition with the corresponding colour differences. […]
2.4 Solvent-Dependent Study
As in the Section 2.3, stock solutions of compound 1 were prepared in DMSO, ACN and MeOH and stored at RT for 16 days in a box protected from light . Samples were collected during this time and the enzymatic activity was analysed for them as in main text, Table […]
compound 1 for ACN or MeOH was detectible (Figures S11–12). Similarly, the old samples of compound 1 used for enzyme and cell assays were analysed with HRMS (Figure S13). Additionally, NMR sample in MeOH was prepared and measured over time while stored at RT. As a follow-up experiment, the stability of compound 1 was determined for its 10 mM stock solution in Tris-HCl (pH 7.6) with and without 5% DMSO and Cyrene™ with HRMS (Figure S16–18). […]

SMILES: CCn1c(C)cc(-c2csc(Nc3ccccc3C(F)(F)F)n2)c1C [Compound 1]
- IC50 ([1]; NF54, 48 h, analytical sample, DMSO at RT, 2 days of incubation, dissolved in methanol shortly before the assay): 3.5 ± 0.3 µM
- IC50 ([1]; NF54, 96 h, analytical sample, DMSO at RT, 4 days of incubation, dissolved in methanol shortly before the assay): 2.7 ± 0.3 µM
- IC50 ([1]; NF54, fresh batch): 7.3 ± 0.8 µM
- IC50 ([1]; NF54, old batch (decomposed DMSO stock)): 0.43 ± 0.01 µM
- reduction in activity against PfNF54, fresh batch vs old batch ([1]; fresh batch compared with old decomposed batch): 17 fold
- Degradation after 2 months ([2]; 10 mM in DMSO, +4 °C): 79%
- Percentage of Compound 1 Left After Degradation ([2]; 10 mM in DMSO, +4 °C, 1 month): 48%
- Percentage of Compound 1 Left After Degradation ([2]; 10 mM in DMSO, +4 °C, 2 months): 21%
- Percentage of Compound 1 Left After Degradation ([2]; 10 mM in DMSO, +4 °C, Day 7): 96%
- Degradation after 2 months ([2]; 10 mM in DMSO, RT): 100%
- decomposition after two weeks (in words) ([2]; 10 mM in DMSO, RT): fully decomposed
- share of sample decomposed after seven days ([2]; 10 mM in DMSO, RT): 64%
- Percentage of Compound 1 Left After Degradation ([2]; 10 mM in DMSO, RT, 1 month): 1%
- Percentage of Compound 1 Left After Degradation ([2]; 10 mM in DMSO, RT, 2 months): 0%
- Percentage of Compound 1 Left After Degradation ([2]; 10 mM in DMSO, RT, Day 7): 36%
- Degradation after 2 months ([2]; 10 mM in DMSO, −20 °C): 18%
- Percentage of Compound 1 Left After Degradation ([2]; 10 mM in DMSO, −20 °C, 1 month): 91%
- Percentage of Compound 1 Left After Degradation ([2]; 10 mM in DMSO, −20 °C, 2 months): 82%
- Percentage of Compound 1 Left After Degradation ([2]; 10 mM in DMSO, −20 °C, Day 7): 96%
- decomposition at −20 °C (in words) ([2]; 10 mM in DMSO, −20 °C, up to two months): decomposition hardly occurs; also recorded: only minimal decomposition
- decomposition in Cyrene (HRMS, in words) ([2]; 10 mM stock in Cyrene, RT, after one day): clear decomposition
- decomposition in ACN (HRMS, in words) ([2]; stock solution in ACN at RT for 16 days): no decomposition
- decomposition in MeOH (HRMS, in words) ([2]; stock solution in MeOH at RT for 16 days): no decomposition
